According to ChEMBL document CHEMBL4177735, “Design, synthesis and pharmacological evaluation of new acyl sulfonamides as potent and selective Bcl-2 inhibitors” (Bioorg Med Chem, 2018):

What was measured:
[1] = molecular target: Apoptosis regulator Bcl-2 (Homo sapiens, UniProt P10415); test: Displacement of Bax-derived peptide from Bcl-2 (unknown origin) by fluorescence polarization assay
Homo sapiens = species: Homo sapiens; test: Selectivity factor, ratio of IC50 for Bad-derived peptide from Bcl-XL (unknown origin) to IC50 for displacement of Bax-derived peptide from Bcl-2 (unknown origin)
Bcl-2-like protein 1 = Bcl-2-like protein 1 (Homo sapiens, UniProt Q07817); test: Displacement of Bad-derived peptide from Bcl-XL (unknown origin) by fluorescence polarization assay
Chain of Bcl-2-like protein 1 (Q07817 whole entry): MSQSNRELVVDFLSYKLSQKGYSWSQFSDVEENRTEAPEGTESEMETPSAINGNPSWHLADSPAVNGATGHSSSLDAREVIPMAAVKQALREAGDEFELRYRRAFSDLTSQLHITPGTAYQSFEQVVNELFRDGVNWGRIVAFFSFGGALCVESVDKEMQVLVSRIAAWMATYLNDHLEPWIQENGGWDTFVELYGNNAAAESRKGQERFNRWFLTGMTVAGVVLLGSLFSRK

Chain of Apoptosis regulator Bcl-2 (P10415 whole entry): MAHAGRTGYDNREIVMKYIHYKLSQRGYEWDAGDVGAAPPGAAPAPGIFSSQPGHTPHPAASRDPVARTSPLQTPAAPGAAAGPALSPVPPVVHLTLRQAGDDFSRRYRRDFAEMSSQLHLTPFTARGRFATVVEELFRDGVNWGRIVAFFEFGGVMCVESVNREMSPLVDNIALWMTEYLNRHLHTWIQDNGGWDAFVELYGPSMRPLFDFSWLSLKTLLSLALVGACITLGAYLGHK

**Q.** Which results are given for `CC1(C)CCC(c2ccc(Cl)cc2)=C(CN2CCc3sc(C(=O)NS(=O)(=O)c4ccc(N[C@H](CCN5CCOCC5)CSc5ccccc5)c(S(=O)(=O)C(F)(F)F)c4)cc3C2)C1`?
**A.** IC50 [1]: 57.9 nM; Ratio IC50 (Homo sapiens): 0.46; IC50 (Bcl-2-like protein 1): 26.6 nM

**Q.** Which results are given for `CC1(C)CCC(c2ccc(Cl)cc2)=C(CN2CCN(c3ccc(C(=O)NS(=O)(=O)c4ccc(NC5(CN6CC(F)(F)C6)CC5)c(S(=O)(=O)C(F)(F)F)c4)cc3)CC2)C1`?
**A.** IC50 [1]: 34.8 nM; Ratio IC50 (Homo sapiens): 9.83; IC50 (Bcl-2-like protein 1): 342 nM

**Q.** How did the IC50 [1] turn out when `CC1(C)CCC(c2ccc(Cl)cc2)=C(CNC2(Cn3cnc4cc(C(=O)NS(=O)(=O)c5ccc(N[C@H](CCN6CCOCC6)CSc6ccccc6)c(S(=O)(=O)C(F)(F)F)c5)ccc43)CC2)C1` was run?
**A.** 108 nM

**Q.** And the Ratio IC50 (Homo sapiens)?
**A.** 0.27

**Q.** What about the IC50 (Bcl-2-like protein 1) of the same compound?
**A.** 29.3 nM

**Q.** How did the IC50 [1] turn out when `CC1(C)CCC(c2ccc(Cl)cc2)=C(CN2CCN(c3ccc(C(=O)NS(=O)(=O)c4ccc(OCC5(CN6CCOCC6)COC5)c(S(=O)(=O)C(F)(F)F)c4)cc3)CC2)C1` was run?
**A.** 14.5 nM

**Q.** What about the Ratio IC50 (Homo sapiens) of the same compound?
**A.** 3.4

**Q.** What about the IC50 (Bcl-2-like protein 1) of the same compound?
**A.** 49.3 nM

**Q.** `CN1CCN(S(=O)(=O)NC(=O)c2ccc(N3CCN(CC4=C(c5ccc(Cl)cc5)CCC(C)(C)C4)CC3)cc2)CC1` was tested. Which IC50 [1] did it give?
**A.** 168 nM

**Q.** What about the Ratio IC50 (Homo sapiens) of the same compound?
**A.** > 5.93

**Q.** And the IC50 (Bcl-2-like protein 1)?
**A.** > 1000 nM

**Q.** `CC1(C)CCC(c2ccc(Cl)cc2)=C(CN2CCN(c3ccc(C(=O)NS(C)(=O)=O)cc3)CC2)C1` was tested. Which IC50 [1] did it give?
**A.** 495 nM

**Q.** And the Ratio IC50 (Homo sapiens)?
**A.** > 2.02

**Q.** What about the IC50 (Bcl-2-like protein 1) of the same compound?
**A.** > 1000 nM

**Q.** How did the IC50 [1] turn out when `CC1(C)CCC(c2ccc(Cl)cc2)=C(CN2CCc3ccc(C(=O)NS(=O)(=O)c4ccc(N[C@H](CCN5CCOCC5)CSc5ccccc5)c(S(=O)(=O)C(F)(F)F)c4)cc3CC2)C1` was run?
**A.** 193 nM

**Q.** And the Ratio IC50 (Homo sapiens)?
**A.** 0.13

**Q.** What about the IC50 (Bcl-2-like protein 1) of the same compound?
**A.** 25.6 nM

**Q.** How did the IC50 [1] turn out when `CC1(C)CCC(c2ccc(Cl)cc2)=C(CN2CCN(c3ccc(C(=O)NS(=O)(=O)c4ccc(NC5(CN6CCOCC6)CC5)c(S(=O)(=O)C(F)(F)F)c4)cc3)CC2)C1` was run?
**A.** 40.7 nM

**Q.** What about the Ratio IC50 (Homo sapiens) of the same compound?
**A.** 1.36

**Q.** And the IC50 (Bcl-2-like protein 1)?
**A.** 55.3 nM

**Q.** `CN(C)c1ccc(S(=O)(=O)NC(=O)c2ccc(N3CCN(CC4=C(c5ccc(Cl)cc5)CCC(C)(C)C4)CC3)cc2)cc1S(=O)(=O)C(F)(F)F` was tested. Which IC50 [1] did it give?
**A.** 65.1 nM

**Q.** What about the Ratio IC50 (Homo sapiens) of the same compound?
**A.** 3.34

**Q.** And the IC50 (Bcl-2-like protein 1)?
**A.** 218 nM

**Q.** For `Cn1ccc(S(=O)(=O)NC(=O)c2ccc(N3CCN(CC4=C(c5ccc(Cl)cc5)CCC(C)(C)C4)CC3)cc2)n1`, which IC50 [1] is on record?
**A.** 67.4 nM

**Q.** What about the Ratio IC50 (Homo sapiens) of the same compound?
**A.** > 14.8

**Q.** And the IC50 (Bcl-2-like protein 1)?
**A.** > 1000 nM

**Q.** `CC1(C)CCC(c2ccc(Cl)cc2)=C(CN2CCc3cc(C(=O)NS(=O)(=O)c4ccc(N[C@H](CCN5CCOCC5)CSc5ccccc5)c(S(=O)(=O)C(F)(F)F)c4)ccc3C2)C1` was tested. Which IC50 [1] did it give?
**A.** 12.6 nM

**Q.** What about the Ratio IC50 (Homo sapiens) of the same compound?
**A.** 1.15

**Q.** What about the IC50 (Bcl-2-like protein 1) of the same compound?
**A.** 14.6 nM

**Q.** Which IC50 [1] does the source give for `CC1(C)CCC(c2ccc(Cl)cc2)=C(CN2CCN(c3ccc(C(=O)NS(=O)(=O)c4ccc(N[C@@H](CC5CC5)C(=O)N5CCOCC5)c(S(=O)(=O)C(F)(F)F)c4)cc3)CC2)C1` here?
**A.** 68.2 nM

**Q.** What about the Ratio IC50 (Homo sapiens) of the same compound?
**A.** 0.87

**Q.** What about the IC50 (Bcl-2-like protein 1) of the same compound?
**A.** 59.3 nM

**Q.** How did the IC50 [1] turn out when `CN(CCO)c1ccc(S(=O)(=O)NC(=O)c2ccc(N3CCN(CC4=C(c5ccc(Cl)cc5)CCC(C)(C)C4)CC3)cc2)cc1S(=O)(=O)C(F)(F)F` was run?
**A.** 46 nM

**Q.** What about the Ratio IC50 (Homo sapiens) of the same compound?
**A.** 2.53

**Q.** What about the IC50 (Bcl-2-like protein 1) of the same compound?
**A.** 116 nM

**Q.** `CC1(C)CCC(c2ccc(Cl)cc2)=C(CN2CCc3nc(C(=O)NS(=O)(=O)c4ccc(N[C@H](CCN5CCOCC5)CSc5ccccc5)c(S(=O)(=O)C(F)(F)F)c4)sc3C2)C1` was tested. Which IC50 [1] did it give?
**A.** 38.1 nM

**Q.** What about the Ratio IC50 (Homo sapiens) of the same compound?
**A.** 0.35

**Q.** And the IC50 (Bcl-2-like protein 1)?
**A.** 13.2 nM

**Q.** What does the source list for `CC1(C)CCC(c2ccc(Cl)cc2)=C(CN2CCN(c3ccc(C(=O)NS(=O)(=O)c4ccc(N5CC(F)(F)C5)c(S(=O)(=O)C(F)(F)F)c4)cc3)CC2)C1`?
**A.** IC50 [1]: 46.6 nM; Ratio IC50 (Homo sapiens): 3.48; IC50 (Bcl-2-like protein 1): 162 nM

**Q.** How did the IC50 [1] turn out when `CC1(C)CCC(c2ccc(Cl)cc2)=C(CNC2(Cn3cnc4ccc(C(=O)NS(=O)(=O)c5ccc(N[C@H](CCN6CCOCC6)CSc6ccccc6)c(S(=O)(=O)C(F)(F)F)c5)cc43)CC2)C1` was run?
**A.** > 1000 nM

**Q.** What about the IC50 (Bcl-2-like protein 1) of the same compound?
**A.** > 1000 nM

**Q.** Which IC50 [1] does the source give for `CC1(C)CCC(c2ccc(Cl)cc2)=C(CN2CCN(c3ccc(C(=O)NS(=O)(=O)c4ccc(OCC5(CN6CC(F)(F)C6)COC5)c(S(=O)(=O)C(F)(F)F)c4)cc3)CC2)C1` here?
**A.** 17.3 nM

**Q.** What about the Ratio IC50 (Homo sapiens) of the same compound?
**A.** 6.06

**Q.** What about the IC50 (Bcl-2-like protein 1) of the same compound?
**A.** 105 nM

**Q.** Which IC50 [1] does the source give for `CC1(C)CCC(c2ccc(Cl)cc2)=C(CN2CCN(c3ccc(C(=O)NS(=O)(=O)c4ccc(N[C@@H](CC5CC5)CN5CCOCC5)c(S(=O)(=O)C(F)(F)F)c4)cc3)CC2)C1` here?
**A.** 20.7 nM

**Q.** And the Ratio IC50 (Homo sapiens)?
**A.** 1.62

**Q.** And the IC50 (Bcl-2-like protein 1)?
**A.** 33.5 nM
